Laboratory results published in PubChem BioAssay AID1259411 (Chemical Carcinogenesis Research Information System (CCRIS), 2018).
Activity calls are given as the source filed them. The rule behind the calls is not given here.

Test system: rodent carcinogenicity bioassays, tumor incidence
Test: CCRIS carcinogenicity studies
Summary of the method: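 NCI-built, expert-reviewed records of carcinogenicity and related test outcomes (mutagenicity, tumor promotion/inhibition) compiled from published and report sources, historical span 1985-2011, not updated.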

OCc1ccco1
carcinogen call (Species: MOUSE, Strain/Sex: B6C3F1/FEMALE, Route: INHALATION, Dose: 0, 2, 8, 32 PPM 6 HR/D 5 D/WK FOR 105 WK (STUDY DURATION: 105 WK), Dose: 0, 2, 8, 32 PPM 6 HR/D 5 D/WK FOR 105 WK (STUDY DURATION: 105 WK)): inactive; negative | carcinogen call (Species: MOUSE, Strain/Sex: B6C3F1/MALE, Route: INHALATION, Dose: 0, 2, 8, 32 PPM 6 HR/D 5 D/WK FOR 105 WK (STUDY DURATION: 105 WK), Dose: 0, 2, 8, 32 PPM 6 HR/D 5 D/WK FOR 105 WK (STUDY DURATION: 105 WK), Tumor Site: Type of Lesion: KIDNEY: RENAL TUBULE ADENOMA, CARCINOMA): active; positive | carcinogen call (Species: RAT, Strain/Sex: F344/FEMALE, Route: INHALATION, Dose: 0, 2, 8, 32 PPM 6 HR/D 5 D/WK FOR 105 WK (STUDY DURATION: 105 WK), Dose: 0, 2, 8, 32 PPM 6 HR/D 5 D/WK FOR 105 WK (STUDY DURATION: 105 WK), Tumor Site: Type of Lesion: NOSE: LATERAL WALL, ADENOMA, RESPIRATORY EPITHELIUM ADENOMA, KIDNEY (RENAL TUBULE): ADENOMA, CARCINOMA, ADENOMA OR CARCI): equivocal | carcinogen call (Species: RAT, Strain/Sex: F344/MALE, Route: INHALATION, Dose: 0, 2, 8, 32 PPM 6 HR/D 5 D/WK FOR 105 WK (STUDY DURATION: 105 WK), Dose: 0, 2, 8, 32 PPM 6 HR/D 5 D/WK FOR 105 WK (STUDY DURATION: 105 WK), Tumor Site: Type of Lesion: NOSE: ADENOMA, CARCINOMA, OR SQUAMOUS CELL CARCINOMA): active; positive

O=NN(c1ccccc1)c1ccccc1
carcinogen call (Species: MOUSE, Strain/Sex: B6C3F1/FEMALE, Route: ORAL, Dose: 0, 2315, 5741 PPM IN DIET, TWA, Dose: 0, 2315, 5741 PPM IN DIET, TWA): inactive; negative | carcinogen call (Species: MOUSE, Strain/Sex: B6C3F1/MALE, Route: ORAL, Dose: 0, 10000, 20000 PPM IN DIET, Dose: 0, 10000, 20000 PPM IN DIET): inactive; negative | carcinogen call (Species: RAT, Strain/Sex: F344/FEMALE, Route: ORAL, Dose: 0, 1000, 4000 PPM IN DIET, Dose: 0, 1000, 4000 PPM IN DIET, Tumor Site: Type of Lesion: URINARY BLADDER: TRANSITIONAL CELL CARCINOMA): active; positive | carcinogen call (Species: RAT, Strain/Sex: F344/MALE, Route: ORAL, Dose: 0, 1000, 4000 PPM IN DIET, Dose: 0, 1000, 4000 PPM IN DIET, Tumor Site: Type of Lesion: INTEGUMENTARY SYSTEM: FIBROMA, URINARY BLADDER: TRANSITIONAL CELL CARCINOMA): active; positive

O=C1c2ccccc2CN2C(=O)c3ccccc3CN12
carcinogen call (Species: MOUSE, Strain/Sex: BALB/FEMALE, Route: ORAL, Dose: 0, 300, 600, 1200 PPM IN DIET FOR 80 WK (STUDY DURATION: 120 WK), Dose: 0, 300, 600, 1200 PPM IN DIET FOR 80 WK (STUDY DURATION: 120 WK), Tumor Site: Type of Lesion: LIVER: HEPATOCELLULAR ADENOMA OR CARCINOMA, ANGIOSARCOMA): active; positive | carcinogen call (Species: MOUSE, Strain/Sex: BALB/MALE, Route: ORAL, Dose: 0, 300, 600, 1200 PPM IN DIET FOR 80 WK (STUDY DURATION: 120 WK), Dose: 0, 300, 600, 1200 PPM IN DIET FOR 80 WK (STUDY DURATION: 120 WK), Tumor Site: Type of Lesion: LIVER: ANGIOMA, ANGIOSARCOMA): active; positive

CCCCCCCCCCCCCCN(C)N=O
carcinogen call (Species: RAT, Strain/Sex: F344/MALE, Route: GAVAGE, Dose: 0, 140 MG/ML IN CORN OIL 2/WK FOR 30 WK, STUDY DURATION: 110 WK, Dose: 0, 140 MG/ML IN CORN OIL 2/WK FOR 30 WK, STUDY DURATION: 110 WK, Tumor Site: Type of Lesion: BLADDER): active; positive

CCCC(CCC)C(=O)O
carcinogen call (Species: RAT, Strain/Sex: WISTAR/FEMALE, Route: ORAL, Dose: 0, 125, 250, 500 MG/KG BW IN DIET FOR 104 WK (STUDY DURATION: 104 WK), Dose: 0, 125, 250, 500 MG/KG BW IN DIET FOR 104 WK (STUDY DURATION: 104 WK), Tumor Site: Type of Lesion: UTERUS: ADENOCARCINOMA): active; positive | carcinogen call (Species: RAT, Strain/Sex: WISTAR/MALE, Route: ORAL, Dose: 0, 125, 250, 500 MG/KG BW IN DIET FOR 104 WK (STUDY DURATION: 104 WK), Dose: 0, 125, 250, 500 MG/KG BW IN DIET FOR 104 WK (STUDY DURATION: 104 WK)): inactive; negative

Nc1cc(S(=O)(=O)O)cc2c1C(=O)/C(=N/Nc1ccc(-c3ccc(N/N=C4/C(=O)c5c(N)cc(S(=O)(=O)O)cc5C=C4S(=O)(=O)O)cc3)cc1)C(S(=O)(=O)O)=C2
carcinogen call (Species: RAT, Strain/Sex: F344/FEMALE, Route: ORAL, Dose: 0, 190, 375, 750, 1500, 3000 PPM IN DIET FOR 91 D (STUDY DURATION: 93 D), Dose: 0, 190, 375, 750, 1500, 3000 PPM IN DIET FOR 91 D (STUDY DURATION: 93 D), Tumor Site: Type of Lesion: LIVER: HEPATOCELLULAR CARCINOMA OR NEOPLASTIC NODULE, FOCI OF CELLULAR ALTERATION OR BASOPHILIC FOCI): active; positive | carcinogen call (Species: RAT, Strain/Sex: F344/MALE, Route: ORAL, Dose: 0, 190, 375, 750, 1500, 3000 PPM IN DIET FOR 91 D (STUDY DURATION: 93 D), Dose: 0, 190, 375, 750, 1500, 3000 PPM IN DIET FOR 91 D (STUDY DURATION: 93 D), Tumor Site: Type of Lesion: LIVER: HEPATOCELLULAR CARCINOMA OR NEOPLASTIC NODULE, FOCI OF CELLULAR ALTERATION OR BASOPHILIC FOCI): active; positive

ClC[C@H]1O[C@@H]1Cl
carcinogen call (Species: MOUSE, Strain/Sex: ICR/FEMALE, Route: DERMAL, Dose: 10 MG IN 0.1 ML ACETONE 3/WK FOR LIFE, Tumor Site: Type of Lesion: INTEGUMENTARY SYSTEM (SKIN): PAPILLOMA, SQUAMOUS CELL CARCINOMA): active; positive | carcinogen call (Species: MOUSE, Strain/Sex: ICR/FEMALE, Route: SUBCUTANEOUS, Dose: 500 UG IN 0.05 ML TRICAPRYLIN 1/WK FOR LIFE, Tumor Site: Type of Lesion: INJECTION SITE: FIBROSARCOMA): active; positive

c1ccc(Nc2ccc3ccccc3c2)cc1
carcinogen call (Species: MOUSE, Strain/Sex: B6C3F1/FEMALE, Route: ORAL, Dose: 0, 2500, 5000 PPM IN DIET FOR 103 WK (STUDY DURATION: 104 WK), Dose: 0, 2500, 5000 PPM IN DIET FOR 103 WK (STUDY DURATION: 104 WK), Tumor Site: Type of Lesion: KIDNEY: RENAL TUBULAR CELL ADENOMA, RENAL TUBULAR CELL ADENOCARCINOMA): equivocal | carcinogen call (Species: MOUSE, Strain/Sex: B6C3F1/MALE, Route: ORAL, Dose: 0, 2500, 5000 PPM IN DIET FOR 103 WK (STUDY DURATION: 104 WK), Dose: 0, 2500, 5000 PPM IN DIET FOR 103 WK (STUDY DURATION: 104 WK)): inactive; negative | carcinogen call (Species: RAT, Strain/Sex: F344/FEMALE, Route: ORAL, Dose: 0, 2500, 5000 PPM IN DIET FOR 103 WK (STUDY DURATION: 104 WK), Dose: 0, 2500, 5000 PPM IN DIET FOR 103 WK (STUDY DURATION: 104 WK)): inactive; negative | carcinogen call (Species: RAT, Strain/Sex: F344/MALE, Route: ORAL, Dose: 0, 2500, 5000 PPM IN DIET FOR 103 WK (STUDY DURATION: 104 WK), Dose: 0, 2500, 5000 PPM IN DIET FOR 103 WK (STUDY DURATION: 104 WK)): inactive; negative | carcinogen call (Species: RAT, Strain/Sex: SPRAGUE-DAWLEY/FEMALE, Route: GAVAGE, Dose: 0, 600 MG/KG BW 2/WK FOR DURATION OF STUDY (STUDY DURATION: LIFETIME)): inactive; negative | carcinogen call (Species: RAT, Strain/Sex: SPRAGUE-DAWLEY/MALE, Route: GAVAGE, Dose: 0, 600 MG/KG BW 2/WK FOR DURATION OF STUDY (STUDY DURATION: LIFETIME)): inactive; negative
